Data reported in patent US20130072430A1, “METHODS FOR TREATMENT OR PROPHYLAXIS OF KIDNEY OR LIVER DYSFUNCTION” (NPS PHARMACEUTICALS, INC., priority 2010, published 2013).

Tested on: Human patients with short bowel syndrome
Assay: Example 1: liver diagnostic biomarkers (total bilirubin, ALT, AST, ALP) in short bowel syndrome patients, every four weeks for 24 weeks
Type: in vivo
Design: AST (SGOT) Change from Baseline, Median / ALT (SGPT), Median / TOTAL BILIRUBIN, Median / TOTAL BILIRUBIN Change from Baseline, Median / ALT (SGPT) Change from Baseline, Median / AST (SGOT), Median: unit not given here
Protocol: Human patients with short bowel syndrome were divided into three groups: a control group (16 total individuals) to receive placebo, an experimental group (35 total individuals) to receive teduglutide at 0.05 mg/kg/day throughout the study, and an experimental group (32 total individuals) to receive teduglutide at 0.1 mg/kg/day throughout the study. Patients were treated by subcutaneous injection of placebo or the appropriate dose of teduglutide. As individuals with short bowel syndrome are likely to experience associated liver and kidney disease, known biomarkers of liver and kidney function were monitored every four weeks, for 24 weeks. The liver biomarkers tested included total bilirubin, ALT and AST and ALP. The kidney biomarkers tested included urea nitrogen, creatinine and GFR. Before administration of placebo or teduglutide, diagnostic biomarker levels were tested to establish a baseline for each individual.
To visualize the effect of GLP-2 on the levels of the diagnostic biomarkers, the average change from baseline was calculated for the placebo and teduglutide treated groups for each visit after a baseline was established. The average change from baseline of each group is depicted in FIGS. […]. The numerical figures for each diaanostic biomarker at each time point are depicted in Table 1.
The efficacy of teduglutide in treating liver dysfunction was further tested by sorting the data into two groups: individuals with abnormal baseline values of liver diagnostic biomarkers; and individuals with normal baseline values of liver diagnostic biomarkers. The mean diagnostic biomarker change from baseline for these two groups is shown for ALT (FIGS. 5 and 6) and AST (FIGS. 7 and 8). […] These changes were significant when compared to baseline levels for the group, and when compared to placebo (see FIGS. 5 and 7).
The raw data for this sorting is reproduced in Table 2 below.

[1] = Week 4, range <−5%, teduglutide 0.05 mg/kg/day
[2] = Week 4, range <−5%, teduglutide 0.1 mg/kg/day
[3] = Week 4, range >5%, teduglutide 0.05 mg/kg/day
[4] = Week 4, range >5%, teduglutide 0.1 mg/kg/day
[5] = Week 4, range −5%<= and <=5%, teduglutide 0.05 mg/kg/day
[6] = Week 4, range −5%<= and <=5%, teduglutide 0.1 mg/kg/day
[7] = Week 8, range <−5%, teduglutide 0.05 mg/kg/day
[8] = Week 8, range <−5%, teduglutide 0.1 mg/kg/day
[9] = Week 8, range >5%, teduglutide 0.05 mg/kg/day
[10] = Week 8, range >5%, teduglutide 0.1 mg/kg/day
[11] = Week 8, range −5%<= and <=5%, teduglutide 0.05 mg/kg/day
[12] = Week 8, range −5%<= and <=5%, teduglutide 0.1 mg/kg/day
[13] = Week 12, range <−5%, teduglutide 0.05 mg/kg/day
[14] = Week 12, range <−5%, teduglutide 0.1 mg/kg/day
[15] = Week 12, range >5%, teduglutide 0.05 mg/kg/day
[16] = Week 12, range >5%, teduglutide 0.1 mg/kg/day

## CC[C@H](C)[C@H](NC(=O)[C@H](Cc1ccccc1)NC(=O)[C@H](CC(=O)O)NC(=O)[C@H](CCCNC(=N)N)NC(=O)[C@H](C)NC(=O)[C@H](C)NC(=O)[C@H](CC(C)C)NC(=O)[C@H](CC(N)=O)NC(=O)[C@H](CC(=O)O)NC(=O)[C@H](CC(C)C)NC(=O)[C@@H](NC(=O)[C@@H](NC(=O)[C@H](CC(N)=O)NC(=O)[C@H](CCSC)NC(=O)[C@H](CCC(=O)O)NC(=O)[C@H](CC(=O)O)NC(=O)[C@H](CO)NC(=O)[C@H](Cc1ccccc1)NC(=O)[C@H](CO)NC(=O)CNC(=O)[C@H](CC(=O)O)NC(=O)CNC(=O)[C@@H](N)Cc1c[nH]cn1)[C@@H](C)O)[C@@H](C)CC)C(=O)N[C@@H](CC(N)=O)C(=O)N[C@@H](Cc1c[nH]c2ccccc12)C(=O)N[C@@H](CC(C)C)C(=O)N[C@H](C(=O)N[C@@H](CCC(N)=O)C(=O)N[C@H](C(=O)N[C@@H](CCCCN)C(=O)N[C@H](C(=O)N[C@H](C(=O)N[C@@H](CC(=O)O)C(=O)O)[C@@H](C)O)[C@@H](C)CC)[C@@H](C)O)[C@@H](C)CC [teduglutide]
0.10 mg/kg/day, DW20
  AST (SGOT), Median: 30.0
  TOTAL BILIRUBIN Change from Baseline, Mean (SD): −2.7 (14.42)
  TOTAL BILIRUBIN Change from Baseline, Median: 0.0
  TOTAL BILIRUBIN, Mean (SD): 10.4 (10.13)
  TOTAL BILIRUBIN, Median: 7.0
0.10 mg/kg/day, DW24
  ALKALINE PHOSPHATASE Change from Baseline, Mean (SD): −18.9 (67.08)
  ALKALINE PHOSPHATASE Change from Baseline, Median: −21.0
  ALKALINE PHOSPHATASE, Mean (SD): 136.7 (85.50)
  ALKALINE PHOSPHATASE, Median: 105.0
  ALT (SGPT) Change from Baseline, Mean (SD): −7.3 (32.62)
  ALT (SGPT) Change from Baseline, Median: −4.0
  ALT (SGPT), Mean (SD): 42.2 (27.28)
  ALT (SGPT), Median: 37.0
  AST (SGOT) Change from Baseline, Mean (SD): −4.8 (23.34)
  AST (SGOT) Change from Baseline, Median: −3.0
  AST (SGOT), Mean (SD): 35.3 (18.69)
  AST (SGOT), Median: 32.0
  TOTAL BILIRUBIN Change from Baseline, Mean (SD): −2.4 (12.73)
  TOTAL BILIRUBIN Change from Baseline, Median: 0.0
  TOTAL BILIRUBIN, Mean (SD): 11.3 (12.28)
  TOTAL BILIRUBIN, Median: 9.0
[1]
  ALKALINE PHOSPHATASE change from baseline: patients in range, n(%): 21(60.0%)
  ALT (SGPT) change from baseline: patients in range, n(%): 22(62.9%)
  AST (SGOT) change from baseline: patients in range, n(%): 21(60.0%)
  TOTAL BILIRUBIN change from baseline: patients in range, n(%): 12(34.3%)
[2]
  ALKALINE PHOSPHATASE change from baseline: patients in range, n(%): 17(53.1%)
  ALT (SGPT) change from baseline: patients in range, n(%): 20(62.5%)
  AST (SGOT) change from baseline: patients in range, n(%): 17(53.1%)
  TOTAL BILIRUBIN change from baseline: patients in range, n(%): 16(50.0%)
[3]
  ALKALINE PHOSPHATASE change from baseline: patients in range, n(%): 3(8.6%)
  ALT (SGPT) change from baseline: patients in range, n(%): 8(22.9%)
  AST (SGOT) change from baseline: patients in range, n(%): 5(14.3%)
  TOTAL BILIRUBIN change from baseline: patients in range, n(%): 8(22.9%)
[4]
  ALKALINE PHOSPHATASE change from baseline: patients in range, n(%): 11(34.4%)
  ALT (SGPT) change from baseline: patients in range, n(%): 10(31.3%)
  AST (SGOT) change from baseline: patients in range, n(%): 10(31.3%)
  TOTAL BILIRUBIN change from baseline: patients in range, n(%): 12(37.5%)
[5]
  ALKALINE PHOSPHATASE change from baseline: patients in range, n(%): 6(17.1%)
  ALT (SGPT) change from baseline: patients in range, n(%): 0(0.0%)
  AST (SGOT) change from baseline: patients in range, n(%): 2(5.7%)
  TOTAL BILIRUBIN change from baseline: patients in range, n(%): 6(17.1%)
[6]
  ALKALINE PHOSPHATASE change from baseline: patients in range, n(%): 4(12.5%)
  ALT (SGPT) change from baseline: patients in range, n(%): 2(6.3%)
  AST (SGOT) change from baseline: patients in range, n(%): 4(12.5%)
  TOTAL BILIRUBIN change from baseline: patients in range, n(%): 3(9.4%)
[7]
  ALKALINE PHOSPHATASE change from baseline: patients in range, n(%): 21(60.0%)
  ALT (SGPT) change from baseline: patients in range, n(%): 16(45.7%)
  AST (SGOT) change from baseline: patients in range, n(%): 16(45.7%)
  TOTAL BILIRUBIN change from baseline: patients in range, n(%): 13(37.1%)
[8]
  ALKALINE PHOSPHATASE change from baseline: patients in range, n(%): 24(75.0%)
  ALT (SGPT) change from baseline: patients in range, n(%): 20(62.5%)
  AST (SGOT) change from baseline: patients in range, n(%): 21(65.6%)
  TOTAL BILIRUBIN change from baseline: patients in range, n(%): 16(50.0%)
[9]
  ALKALINE PHOSPHATASE change from baseline: patients in range, n(%): 6(17.1%)
  ALT (SGPT) change from baseline: patients in range, n(%): 9(25.7%)
  AST (SGOT) change from baseline: patients in range, n(%): 9(25.7%)
  TOTAL BILIRUBIN change from baseline: patients in range, n(%): 8(22.9%)
[10]
  ALKALINE PHOSPHATASE change from baseline: patients in range, n(%): 5(15.6%)
  ALT (SGPT) change from baseline: patients in range, n(%): 8(25.0%)
  AST (SGOT) change from baseline: patients in range, n(%): 5(15.6%)
  TOTAL BILIRUBIN change from baseline: patients in range, n(%): 7(21.9%)
[11]
  ALKALINE PHOSPHATASE change from baseline: patients in range, n(%): 2(5.7%)
  ALT (SGPT) change from baseline: patients in range, n(%): 4(11.4%)
  AST (SGOT) change from baseline: patients in range, n(%): 4(11.4%)
  TOTAL BILIRUBIN change from baseline: patients in range, n(%): 4(11.4%)
[12]
  ALKALINE PHOSPHATASE change from baseline: patients in range, n(%): 2(6.3%)
  ALT (SGPT) change from baseline: patients in range, n(%): 2(6.3%)
  AST (SGOT) change from baseline: patients in range, n(%): 4(12.5%)
  TOTAL BILIRUBIN change from baseline: patients in range, n(%): 6(18.8%)
[13]
  ALKALINE PHOSPHATASE change from baseline: patients in range, n(%): 23(65.7%)
  ALT (SGPT) change from baseline: patients in range, n(%): 19(54.3%)
  AST (SGOT) change from baseline: patients in range, n(%): 19(54.3%)
  TOTAL BILIRUBIN change from baseline: patients in range, n(%): 14(40.0%)
[14]
  ALKALINE PHOSPHATASE change from baseline: patients in range, n(%): 19(59.4%)
  ALT (SGPT) change from baseline: patients in range, n(%): 20(62.5%)
  AST (SGOT) change from baseline: patients in range, n(%): 15(46.9%)
  TOTAL BILIRUBIN change from baseline: patients in range, n(%): 14(43.8%)
[15]
  ALKALINE PHOSPHATASE change from baseline: patients in range, n(%): 2(5.7%)
  ALT (SGPT) change from baseline: patients in range, n(%): 4(11.4%)
  AST (SGOT) change from baseline: patients in range, n(%): 5(14.3%)
  TOTAL BILIRUBIN change from baseline: patients in range, n(%): 6(17.1%)
[16]
  ALKALINE PHOSPHATASE change from baseline: patients in range, n(%): 10(31.3%)
  ALT (SGPT) change from baseline: patients in range, n(%): 7(21.9%)
  AST (SGOT) change from baseline: patients in range, n(%): 10(31.3%)
  TOTAL BILIRUBIN change from baseline: patients in range, n(%): 9(28.1%)
Week 12, range −5%<= and <=5%, teduglutide 0.05 mg/kg/day
  ALKALINE PHOSPHATASE change from baseline: patients in range, n(%): 2(5.7%)
